Laboratory results published in patent publication US10617680B2 (CELGENE QUANTICEL RESEARCH, INC., priority 2017, dated 2020).

Target: CBP (Homo sapiens (Human), UniProt Q92793)
Test: In vitro CBP inhibition (AlphaScreen, biotinylated H4-tetraacetyl peptide)
Format: binding
Settings: AlphaScreen, Table 29; read-out: CBP IC50
Procedure: The CBP-inhibitory activity of the compounds described herein was determined by calculating the IC50. More specifically, CBP inhibitor activity was assayed as follows: CBP was cloned and expressed in E. coli as His-tag protein and purified by Nickel affinity and gel-filtration chromatography. […] CBP binding and inhibition is assessed by monitoring the interaction of biotinylated H4-tetraacetyl peptide (AnaSpec, H4K5/8/12/16(Ac), biotin-labeled) with the target using the AlphaScreen technology (Perkin Elmer). In a 384-well ProxiPlate CBP (50 nM final) was combined with peptide (20 nM final) in 50 mM HEPES (pH 7.3), 10 mM NaCl, 0.25 mM TCEP, 0.1% (w/v) BSA, and 0.005% (w/v) Brij-35 either in the presence of DMSO (final 0.4% DMSO) or compound dilution series in DMSO. After 20 min incubation at room temp, Alpha-streptavidin donor beads and Nickel Chelate acceptor beads were added to a final concentration of 5 μg/mL.
The ability of the compounds disclosed herein to inhibit CBP activity was quantified and the respective IC50 value determined.

Chain of CBP (Q92793 1081-1197): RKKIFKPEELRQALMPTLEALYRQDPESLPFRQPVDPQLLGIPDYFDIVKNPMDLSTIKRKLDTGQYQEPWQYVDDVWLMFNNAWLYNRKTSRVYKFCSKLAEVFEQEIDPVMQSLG

## Cn1cc(-c2cnn(-c3cccc(F)c3C#N)c2)c(-c2ccc(OC(F)F)nc2)cc1=O [Example 353, 2-(4-(6-(difluoromethoxy)-1′-methyl-6′-oxo-1′,6′-dihydro-[3,4′-bipyridin]-3′-yl)-1H-pyrazol-1-yl)-6-fluorobenzonitrile]
  IC50: < 500 nM

## Cn1cc(-c2cnn(Cc3ccccc3)c2)c(N)cc1=O [Example 200, 4-amino-5-(1-benzyl-1H-pyrazol-4-yl)-1-methylpyridin-2(1H)-one]
  IC50: 500 to 5000 nM

## CCn1cc(-c2cn(C)c(=O)cc2-c2ccccc2)cn1 [Example 132, 5-(1-ethyl-1H-pyrazol-4-yl)-1-methyl-4-phenylpyridin-2(1H)-one]
  IC50: < 500 nM

## CC(c1ccccc1)n1cc(-c2cn(C)c(=O)c3c2CCC3)cn1 (stereo not drawn) [Example 33, 2-methyl-4-(1-(1-phenylethyl)-1H-pyrazol-4-yl)-2,5,6,7-tetrahydro-1H-cyclopenta[c]pyridin-1-one]
  IC50: < 500 nM

## Cn1nccc1-c1cc(=O)n(C)cc1-c1cnn(Cc2ccccc2)c1 [Example 110, 5-(1-benzyl-1H-pyrazol-4-yl)-1-methyl-4-(1-methyl-1H-pyrazol-5-yl)pyridin-2(1H)-one]
  IC50: 500 to 5000 nM

## CC1CN(c2cc(=O)n(C)cc2-c2cnn(C(C)c3ccccc3)c2)C1 (stereo not drawn) [Example 54, 1-methyl-4-(3-methylazetidin-1-yl)-5-(1-(1-phenylethyl)-1H-pyrazol-4-yl)pyridin-2(1H)-one]
  IC50: < 500 nM

## CN(C)c1ncc(-c2cc(=O)n(C)cc2-c2cnn(-c3cccc(Cl)c3C#N)c2)cn1 [Example 328, 2-chloro-6-(4-(4-(2-(dimethylamino)pyrimidin-5-yl)-1-methyl-6-oxo-1,6-dihydropyridin-3-yl)-1H-pyrazol-1-yl)benzonitrile]
  IC50: < 500 nM

## Cn1cc(-c2cnn(-c3cccc(F)c3C#N)c2)c(-c2ccc(NCC3CC3)nc2)cc1=O [Example 346, 2-(4-{6-[(cyclopropylmethyl)amino]-1′-methyl-6′-oxo-1′,6′-dihydro-[3,4′-bipyridine]-3′-yl}-1H-pyrazol-1-yl)-6-fluorobenzonitrile]
  IC50: < 500 nM

## COc1ccc(-c2cc(=O)n(C)cc2-c2cnn(-c3ccccc3C(=O)NC#N)c2)cc1 [Example 290, N-cyano-2-(4-(4-(4-methoxyphenyl)-1-methyl-6-oxo-1,6-dihydropyridin-3-yl)-1H-pyrazol-1-yl)benzamide]
  IC50: < 500 nM

## COc1ccc(C(=O)O)c(-n2cc(-c3cn(C)c(=O)cc3-c3ccnc(OC)c3)cn2)c1 [Example 272, 4-Methoxy-2-[4-(2′-methoxy-1-methyl-6-oxo-1,6-dihydro-[4,4′]bipyridinyl-3-yl)-pyrazol-1-yl]-benzoic acid]
  IC50: < 500 nM

## Cn1cc(-c2cnn(-c3cccc(Cl)c3C#N)c2)c(-c2ccc(NC3CCCC3)nc2)cc1=O [Example 340, 2-chloro-6-(4-(6-(cyclopentylamino)-1′-methyl-6′-oxo-1′,6′-dihydro-[3,4′-bipyridin]-3′-yl)-1H-pyrazol-1-yl)benzonitrile]
  IC50: < 500 nM

## CCOc1cc(=O)n(C)cc1-c1cnn(CC2CC2(F)F)c1 (stereo not drawn) [Example 171, 5-[1-(2,2-Difluoro-cyclopropylmethyl)-1H-pyrazol-4-yl]-4-ethoxy-1-methyl-1H-pyridin-2-one]
  IC50: < 500 nM

## Cn1cc(-c2cnn(-c3ccccc3C(=O)NC#N)c2)c(-c2ccc(F)cc2)cc1=O [Example 288, N-cyano-2-(4-(4-(4-fluorophenyl)-1-methyl-6-oxo-1,6-dihydropyridin-3-yl)-1H-pyrazol-1-yl)benzamide]
  IC50: < 500 nM

## CC(c1ccccc1)n1cc(-c2cn(C)c(=O)cc2Cl)cn1 (stereo not drawn) [Example 38, 4-chloro-1-methyl-5-(1-(1-phenyl-ethyl)-1H-pyrazol-4-yl) pyridin-2(1H)-one]
  IC50: < 500 nM

## Cn1ccc(-c2cc(=O)n(C)cc2-c2cnn(Cc3ccccc3)c2)n1 [Example 109, 5-(1-benzyl-1H-pyrazol-4-yl)-1-methyl-4-(1-methyl-1H-pyrazol-3-yl)pyridin-2(1H)-one]
  IC50: 500 to 5000 nM

## Cc1cc(=O)n(C)cc1-c1cnn(Cc2ccccc2)c1 [Example 7, 5-(1-benzyl-1H-pyrazol-4-yl)-1,4-dimethyl-pyridin-2(1H)-one]
  IC50: < 500 nM

## CCOc1cc(=O)n(C)cc1-c1cnn(-c2cc(OC3CC3)ccc2C#N)c1 [Example 184, 4-Cyclopropoxy-2-[4-(4-ethoxy-1-methyl-6-oxo-1,6-dihydro-pyridin-3-yl)-pyrazol-1-yl]-benzonitrile]
  IC50: < 500 nM

## Cn1cc(-c2cnn(Cc3ccccc3)c2)c(-c2cc[nH]c(=O)c2)cc1=O [Example 193, 5-(1-Benzyl-1 H-pyrazol-4-yl)-1-methyl-1H,1′H-[4,4′]bipyridinyl-2,2′-dione]
  IC50: < 500 nM

## Cn1cc(-c2cnn(Cc3ccccc3)c2)c(-c2ccn[nH]2)cc1=O [Example 114, 5-(1-benzyl-1H-pyrazol-4-yl)-1-methyl-4-(1H-pyrazol-5-yl) pyridin-2(1H)-one]
  IC50: < 500 nM

## Cn1cc(-c2cn(C)c(=O)cc2-c2ccccc2)cn1 [Example 107, 1-methyl-5-(1-methyl-1H-pyrazol-4-yl)-4-phenylpyridin-2(1H)-one]
  IC50: < 500 nM

## CCCn1ccc(-c2cc(=O)n(C)cc2-c2cnn(-c3cccc(C4CC4)c3C#N)c2)cc1=O [Example 385, 2-cyclopropyl-6-[4-[1-methyl-6-oxo-4-(2-oxo-1-propyl-4-pyridyl)-3-pyridyl]pyrazol-1-yl]benzonitrile]
  IC50: < 500 nM

## Cn1cc(-c2cnn(-c3ccccc3C#N)c2)c(-c2ccc(C(=O)O)cc2)cc1=O [Example 217, 4-{5-[1-(2-Cyano-phenyl)-1H-pyrazol-4-yl]-1-methyl-2-oxo-1,2-dihydro-pyridin-4-yl}-benzoic acid]
  IC50: < 500 nM

## O=c1cc(-c2ccccc2)c(-c2cnn(Cc3ccccc3)c2)cn1C(F)F [Example 35, 5-(1-benzyl-1H-pyrazol-4-yl)-1-(difluoromethyl)-4-phenyl-pyridin-2(1H)-one]
  IC50: 500 to 5000 nM

## CCOc1cc(=O)n(C)cc1-c1cnn(Cc2ccc(-c3cnn(C)c3)cc2)c1 [Example 102, 4-ethoxy-1-methyl-5-{1-[4-(1-methyl-1H-pyrazol-4-yl)-benzyl]-1H-pyrazol-4-yl}-1H-pyridin-2-one]
  IC50: < 500 nM

## Cn1cc(-c2cnn(CC3CC3)c2)c(-n2ccc(C(=O)O)c2)cc1=O [Example 86, 1-(5-(1-(cyclopropylmethyl)-1H-pyrazol-4-yl)-1-methyl-2-oxo-1,2-dihydropyridin-4-yl)-1H-pyrrolc-3-carboxylic acid]
  IC50: < 500 nM

## CN(C)C(=O)c1ccn(-c2cc(=O)n(C)cc2-c2cnn(Cc3ccccc3)c2)c1 [Example 78, 1-(5-(1-benzyl-1H-pyrazol-4-yl)-1-methyl-2-oxo-1,2-dihydropyridin-4-yl)-N,N-dimethyl-1H-pyrrole-3carboxamide]
  IC50: < 500 nM

## CC(c1ccc(C#N)cc1)n1cc(-c2ccc(=O)n(C)c2)cn1 (stereo not drawn) [Example 25, 4-(1-(4-(1-methyl-6-oxo-1,6-dihydropyridin-3-yl)-1H-pyrazol-1-yl)ethyl)benzonitrile]
  IC50: 500 to 5000 nM

## CNc1ncc(-c2cc(=O)n(C)cc2-c2cnn(-c3ccccc3C#N)c2)cn1 [Example 245, 2-(4-(1-methyl-4-(2-(methylamino)pyrimidin-5-yl)-6-oxo-1,6-dihydropyridin-3-yl)-1H-pyrazol-1-yl)benzonitrile]
  IC50: < 500 nM

## Cn1cc(-c2cnn(Cc3ccccc3)c2)c(-n2cccc2)cc1=O [Example 68, 5-(1-benzyl-1H-pyrazol-4-yl)-1-methyl-4-(1H-pyrrol-1-yl) pyridi-2(1H)-one]
  IC50: < 500 nM

## CC(c1ccccc1)n1cc(-c2cn(C)c(=O)cc2OCc2ccn(C)n2)cn1 (stereo not drawn) [Example 44, 1-methyl-4-((1-methyl-1H-pyrazol-3-yl)methoxy)-5-(1-(1-phenyl-ethyl)-1H-pyrazol-4-yl) pyridin-2(1H)-one]
  IC50: < 500 nM

## CCOc1ccc(-c2cc(=O)n(C)cc2-c2cnn(-c3cc(OC)ccc3C(=O)O)c2)cn1 [Example 271, 2-[4-(6-Ethoxy-1′-methyl-6′-oxo-1′,6′-dihydro-[3,4′]bipyridinyl-3′-yl)-pyrazol-1-yl]-4-methoxy-benzoic acid]
  IC50: < 500 nM

## COc1ccc(-c2cc(=O)n(C)cc2-c2cnn(CC3CC3(F)F)c2)cc1 (stereo not drawn) [Example 191, 5-[1-(2,2-Difluoro-cyclopropylmethyl)-1H-pyrazol-4-yl]-4-(4-methoxy-phenyl)-1-methyl-1H-pyridin-2-one]
  IC50: < 500 nM

## CCOC(=O)c1c(-c2cc(C)c(=O)n(C)c2)cnn1Cc1ccccc1 [Example 199, 2-Benzyl-4-(1,5-dimethyl-6-oxo-1,6-dihydro-pyridin-3-yl)-2H-pyrazole-3-carboxylic acid ethyl ester]
  IC50: < 500 nM

## CC(=O)N1CC(Oc2cc(=O)n(C)cc2-c2cnn(C(C)c3ccccc3)c2)C1 (stereo not drawn) [Example 50, 4-((1-acetylazetidin-3-yl)oxy)-1-methyl-5-(1-(1-phenylethyl)-1H-pyrazol-4-yl)pyridin-2(1H)-one]
  IC50: < 500 nM

## Cn1cc(-c2cnn(-c3cccc(C4CC4)c3C#N)c2)c(-c2ccn(CC3CC3)c(=O)c2)cc1=O [Example 381, 2-cyclopropyl-6-[4-[4-[1-(cyclopropylmethyl)-2-oxo-4-pyridyl]-1-methyl-6-oxo-3-pyridyl]pyrazol-1-yl]benzonitrile]
  IC50: < 500 nM

## Cn1cc(-c2cnn(Cc3ccccc3)c2)c(-c2cn[nH]c2)cc1=O [Example 152, 5-(1-benzyl-1H-pyrazol-4-yl)-1-methyl-4-(1H-pyrazol-4-yl) pyridin-2(1H)-one]
  IC50: < 500 nM
